In this experiment the target is canine TRPM8 (Canis lupus familiaris, UniProt Q1A7N1). The experiment in a line: In Vitro Canine TRPM8 Functional Assay (Ca2+ fluorescence, icilin activation). The class given is cell-based. The settings on record: for IC50: HEK293 cells stably expressing canine TRPM8, icilin activation, eight-point dose-response, read-out: IC50; for inhibition at 0.2 µM / % Inh @ 0.2 (μM): compound at 0.2 μM, canine TRPM8, icilin activation; for inhibition at 0.2 µM: read-out: % Inh @ 0.2. A digest of the protocol: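 Cells (HEK293, stable canine TRPM8) are seeded 24 h before assay. They are then dye-loaded with Calcium 3 at 37 °C followed by room temperature. Compound is added and monitored for 5 min, after which icilin (~80% maximal response) is added.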
Sequence of canine TRPM8 (Q1A7N1 1-1104): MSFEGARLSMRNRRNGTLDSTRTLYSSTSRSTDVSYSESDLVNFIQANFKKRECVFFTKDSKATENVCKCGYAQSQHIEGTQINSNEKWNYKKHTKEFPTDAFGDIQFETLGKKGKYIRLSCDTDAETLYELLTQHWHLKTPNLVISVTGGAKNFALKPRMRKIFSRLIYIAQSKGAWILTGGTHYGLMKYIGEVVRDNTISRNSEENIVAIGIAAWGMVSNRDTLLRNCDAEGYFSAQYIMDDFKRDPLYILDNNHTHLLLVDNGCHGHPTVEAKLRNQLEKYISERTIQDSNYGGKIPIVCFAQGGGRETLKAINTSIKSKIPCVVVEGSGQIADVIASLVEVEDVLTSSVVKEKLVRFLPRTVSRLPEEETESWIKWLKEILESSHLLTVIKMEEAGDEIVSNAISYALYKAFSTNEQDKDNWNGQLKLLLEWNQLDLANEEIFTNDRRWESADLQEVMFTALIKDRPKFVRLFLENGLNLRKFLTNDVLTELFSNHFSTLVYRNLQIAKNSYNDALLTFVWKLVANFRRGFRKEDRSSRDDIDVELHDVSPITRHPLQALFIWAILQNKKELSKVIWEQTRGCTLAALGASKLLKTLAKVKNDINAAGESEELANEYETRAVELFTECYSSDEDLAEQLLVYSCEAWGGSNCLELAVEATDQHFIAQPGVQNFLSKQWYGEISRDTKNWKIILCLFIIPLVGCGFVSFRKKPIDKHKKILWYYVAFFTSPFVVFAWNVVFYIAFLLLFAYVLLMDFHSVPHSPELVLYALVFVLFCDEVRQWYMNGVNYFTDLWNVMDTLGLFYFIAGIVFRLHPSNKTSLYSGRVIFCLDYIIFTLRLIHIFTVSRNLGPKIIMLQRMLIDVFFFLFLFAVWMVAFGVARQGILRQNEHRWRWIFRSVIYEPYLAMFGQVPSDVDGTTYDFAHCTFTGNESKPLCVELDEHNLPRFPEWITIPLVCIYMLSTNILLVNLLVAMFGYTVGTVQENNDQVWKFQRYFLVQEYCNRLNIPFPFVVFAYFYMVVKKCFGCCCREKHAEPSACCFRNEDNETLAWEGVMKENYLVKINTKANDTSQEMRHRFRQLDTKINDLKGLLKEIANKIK

Consider `Cc1c(N(Cc2ccc(F)c(C(F)(F)F)c2)S(=O)(=O)c2ccc(-c3noc(=O)[nH]3)cc2)sc2ccccc12` [Compound 544, N-(3-Methyl-benzo[b]thiophen-2-yl)-N-(4-fluoro-3-trifluoromethyl-benzyl)-4-(5-oxo-4,5-dihydro-[1,2,4]oxadiazol-3-yl)-benzenesulfonamide], for which the half-inhibitory concentration (IC50) (usually the point on the concentration scale where inhibition reaches its midpoint) amounted to 1.8 nM and the inhibition at 0.2 µM stood at 105%.

As for `Cc1c(N(CCCCC(F)(F)F)S(=O)(=O)c2ccc(C(=O)[O-])cc2)sc2ccccc12.[Na+]` [Compound 545, Sodium, N-(3-Methylbenzo[b]thiophen-2-yl)-N-(5,5,5-trifluoro-pentyl)-4-carboxy-benzenesulfonamide], the concentration for half-maximal inhibition (IC50) stood at 1.9 nM and the “% Inh @ 0.2 (μM)” value was found to be 104.78%.

Consider `Cc1c(N(Cc2ccc(F)c(C(F)(F)F)c2)S(=O)(=O)c2cccc(C#N)c2)sc2ccccc12` [Compound 546, N-(4-Fluoro-3-trifluoromethyl-benzyl)-N-(3-methyl-benzo[b]thiophen-2-yl)-3-cyano-benzenesulfonamide], for which the IC50 came to 68.3 nM and the inhibition at 0.2 µM was 85.7%.

Turning to `CC(C)c1c(N(Cc2ccc(F)c(C(F)(F)F)c2)S(=O)(=O)c2ccccc2)sc2ccccc12` [Compound 547, N-(4-Fluoro-3-trifluoromethyl-benzyl)-N-(3-isopropyl-benzo[b]thiophen-2-yl)-benzenesulfonamide], the IC50 was 7.4 nM and the inhibition at 0.2 µM came to 105%.

Consider `CC(C)c1c(N(CCC2CC2)S(=O)(=O)c2ccccc2)sc2ccccc12` [Compound 548, N-(2-Cyclopropyl-ethyl)-N-(3-isopropyl-benzo[b]thiophen-2-yl)-benzenesulfonamide], for which the IC50 was found to be 28.9 nM and the inhibition at 0.2 µM came out at 102%.

As for `Cc1c(N(CCC2CC2)S(=O)(=O)c2cccc(C#N)c2)sc2ccccc12` [Compound 549, N-(2-Cyclopropyl-ethyl)-N-(3-methyl-benzo[b]thiophen-2-yl)-3-cyano-benzenesulfonamide], the IC50 came to 15.9 nM and the inhibition at 0.2 µM stood at 104%.

`Cc1c(N(CCC(F)(F)F)S(=O)(=O)c2cccc(C#N)c2)sc2ccccc12` [Compound 550, N-(3-Methyl-benzo[b]thiophen-2-yl)-N-(3,3,3-trifluoro-propyl)-3-cyano-benzenesulfonamide]: the IC50 was 18.8 nM and the inhibition at 0.2 µM came to 104%.

On to `Cc1c(N(CCCC(F)(F)F)S(=O)(=O)c2cccc(C#N)c2)sc2ccccc12` [Compound 551, N-(3-Methyl-benzo[b]thiophen-2-yl)-N-(4,4,4-trifluoro-butyl)-3-cyano-benzenesulfonamide], for which the half-inhibitory concentration (IC50) came to 88.6 nM and the inhibition at 0.2 µM amounted to 94.4%.

For `Cc1c(N(CCCCC(F)(F)F)S(=O)(=O)c2cccc(C#N)c2)sc2ccccc12` [Compound 552, N-(3-Methyl-benzo[b]thiophen-2-yl)-N-(5,5,5-trifluoro-pentyl)-3-cyano-benzenesulfonamide], the 50% inhibitory concentration (IC50) is 25.1 nM and the inhibition at 0.2 µM came to 101%.

Regarding `CCCCN(c1sc2ccccc2c1Cl)S(=O)(=O)NC` [Compound 553, N-(3-Chloro-benzo[b]thiophen-2-yl)-N-(butyl)-N′-methyl-sulfamide], the inhibition at 0.2 µM came to 38.7%.

On to `CCCCN(c1sc2ccccc2c1Br)S(=O)(=O)NC` [Compound 554, N-(3-Bromo-benzo[b]thiophen-2-yl)-N-(butyl)-N′-methyl-sulfamide], for which the inhibition at 0.2 µM was found to be 52.3%.

As to `Cc1c(N(Cc2ccc(F)c(C(F)(F)F)c2)S(=O)(=O)c2ccc(C(=O)NO)cc2)sc2ccccc12` [Compound 555, 4-([4-Fluoro-3-trifluoromethyl-benzyl)-(3-methyl-benzo[b]thiophen-2-yl)-sulfamoyl]-N-hydroxy-benzamide], the IC50 was 21.9 nM and the inhibition at 0.2 µM came out at 102%.

In the case of `CCCCN(c1cc2ccccc2s1)S(=O)(=O)c1ccc(C(=O)O)cc1` [Compound 556, N-(Benzo[b]thiophen-2-yl)-N-(butyl)-4-carboxy-benzenesulfonamide], the IC50 was 48.2 nM and the inhibition at 0.2 µM was determined as 99.3%.

Turning to `Cc1c(N(Cc2ccc(F)c(C(F)(F)F)c2)S(=O)(=O)c2ccc(C(=O)O)cc2)sc2cc(C(F)(F)F)ccc12` [Compound 557, N-(3-Methyl-6-trifluoromethyl-benzo[b]thiophen-2-yl)-N-(4-fluoro-3-trifluoromethyl-benzyl)-4-carboxy-benzenesulfonamide], the inhibition at 0.2 µM is 39.5%.

`CCCCN(c1sc2cc(C(F)(F)F)ccc2c1C)S(=O)(=O)c1ccc(C(=O)O)cc1` [Compound 558, N-(3-Methyl-6-trifluoromethyl-benzo[b]thiophen-2-yl)-N-(butyl)-4-carboxy-benzenesulfonamide]: the IC50 came out at 99.4 nM and the inhibition at 0.2 µM was found to be 80.9%.

For `CCCCN(c1sc2ccccc2c1Br)S(=O)(=O)c1ccc(N2CCOCC2)cc1` [Compound 559, N-(3-Bromo-benzo[b]thiophen-2-yl)-N-(butyl)-4-morpholine-benzenesulfonamide], the half-inhibitory concentration (IC50) came out at 3.2 nM and the “% Inh @ 0.2 (μM)” value turned out to be 104.59%.

As to `CCCCN(c1sc2ccccc2c1Br)S(=O)(=O)c1ccc(N(C)C)cc1` [Compound 560, N-(3-Bromo-benzo[b]thiophen-2-yl)-N-(butyl)-4-dimethylamino-benzenesulfonamide], the half-inhibitory concentration (IC50) is 65.7 nM and the inhibition at 0.2 µM is 104%.

Take `CCCCN(c1sc2ccccc2c1Cl)S(=O)(=O)c1ccc(N(C)C)cc1` [Compound 561, N-(3-Chloro-benzo[b]thiophen-2-yl)-N-(butyl)-4-dimethylamino-benzenesulfonamide]: the IC50 is 28.4 nM and the inhibition at 0.2 µM amounted to 103%.

As for `CCCCN(c1sc2ccccc2c1Cl)S(=O)(=O)c1ccc(N2CCOCC2)cc1` [Compound 562, N-(3-Chloro-benzo[b]thiophen-2-yl)-N-(butyl)-4-morpholin-4-yl-benzenesulfonamide], the half-maximal inhibitory concentration (IC50) came out at 33.1 nM and the inhibition at 0.2 µM was 103%.

As for `COC(=O)c1ccc(S(=O)(=O)N(Cc2ccc(F)c(C(F)(F)F)c2)c2sc3ccccc3c2C(C)C)cc1` [Compound 563, N-(4-Fluoro-3-trifluoromethyl-benzyl)-N-(3-isopropyl-benzo[b]thiophen-2-yl)-4-carbomethoxy-benzenesulfonamide], the half-inhibitory concentration (IC50) worked out at 49.3 nM and the inhibition at 0.2 µM stood at 94%.

On to `COC(=O)c1ccc(S(=O)(=O)N(CCC2CC2)c2sc3ccccc3c2C(C)C)cc1` [Compound 564, N-(2-Cyclopropyl-ethyl)-N-(3-isopropyl-benzo[b]thiophen-2-yl)-4-carbomethoxy-benzenesulfonamide], for which the inhibition at 0.2 µM amounted to 57.7%.

As to `COC(=O)c1ccc(S(=O)(=O)N(CCCCC(F)(F)F)c2sc3ccccc3c2C(C)C)cc1` [Compound 565, N-(3-Isopropyl-benzo[b]thiophen-2-yl)-N-(5,5,5-trifluoro-pentyl)-4-carbomethoxy-benzenesulfonamide], the IC50 was 117 nM and the inhibition at 0.2 µM worked out at 74.4%.

Take `CC(C)c1c(N(Cc2ccc(F)c(C(F)(F)F)c2)S(=O)(=O)c2ccc(C(=O)O)cc2)sc2ccccc12` [Compound 566, N-(4-Fluoro-3-trifluoromethyl-benzyl)-N-(3-isopropyl-benzo[b]thiophen-2-yl)-4-carboxy-benzenesulfonamide]: the concentration for half-maximal inhibition (IC50) was 1.8 nM and the inhibition at 0.2 µM is 104%.

On to `CC(C)c1c(N(CCC2CC2)S(=O)(=O)c2ccc(C(=O)O)cc2)sc2ccccc12` [Compound 567, N-(2-Cyclopropyl-ethyl)-N-(3-isopropyl-benzo[b]thiophen-2-yl)-4-carboxy-benzenesulfonamide], for which the 50% inhibitory concentration (IC50) was 10.3 nM and the inhibition at 0.2 µM was determined as 104%.

In the case of `CC(C)c1c(N(CCCCC(F)(F)F)S(=O)(=O)c2ccc(C(=O)O)cc2)sc2ccccc12` [Compound 568, N-(5,5,5-Trifluoro-pentyl)-N-(3-isopropyl-benzo[b]thiophen-2-yl)-4-carboxy-benzenesulfonamide], the half-inhibitory concentration (IC50) is 2.4 nM and the inhibition at 0.2 µM is 104%.

Take `O=S(=O)(c1ccc(-c2nnn[nH]2)cc1)N(CCC1CC1)c1cc2ccccc2s1` [Compound 569, N-(Benzo[b]thiophen-2-yl)-N-(2-cyclopropyl-ethyl)-4-(1H-tetrazol-5-yl)-benzenesulfonamide]: the IC50 was determined as 35 nM and the inhibition at 0.2 µM was found to be 88%.

For the molecule `Cc1c(N(CCC2CC2)S(=O)(=O)c2ccc(-c3nnn[nH]3)cc2)sc2ccccc12` [Compound 570, N-(3-Methyl-benzo[b]thiophen-2-yl)-N-(cyclopropyl-ethyl)-4-(1H-tetrazol-5-yl)-benzenesulfonamide], the IC50 was determined as 6.6 nM and the inhibition at 0.2 µM stood at 101%.

Regarding `O=S(=O)(c1ccc(-c2nnn[nH]2)cc1)N(CCC(F)(F)F)c1cc2ccccc2s1` [Compound 571, N-(Benzo[b]thiophen-2-yl)-N-(3,3,3-trifluoro-propyl)-4-(1H-tetrazol-5-yl)-benzenesulfonamide], the inhibition at 0.2 µM came out at 14%.

On to `Cc1c(N(CCC(F)(F)F)S(=O)(=O)c2ccc(-c3nnn[nH]3)cc2)sc2ccccc12` [Compound 572, N-(3-Methyl-benzo[b]thiophen-2-yl)-N-(3,3,3-trifluoro-propyl)-4-(1H-tetrazol-5-yl)-benzenesulfonamide], for which the half-maximal inhibitory concentration (IC50) stood at 16.6 nM and the inhibition at 0.2 µM is 101%.

On to `N#Cc1cccc(S(=O)(=O)N(CCC(F)(F)F)c2cc3ccccc3s2)c1` [Compound 573, N-(Benzo[b]thiophen-2-yl)-N-(3,3,3-trifluoro-propyl)-3-cyano-benzenesulfonamide], for which the inhibition at 0.2 µM was found to be 28%.

Take `N#Cc1cccc(S(=O)(=O)N(CCCC(F)(F)F)c2cc3ccccc3s2)c1` [Compound 574, N-(Benzo[b]thiophen-2-yl)-N-(4,4,4-trifluoro-butyl)-3-cyano-benzenesulfonamide]: the inhibition at 0.2 µM came out at 16%.
